From ChEMBL document CHEMBL4118056, “Antitubercular Activity of Mycelium-Associated Ganoderma Lanostanoids” (J Nat Prod, 2017)
≈ marks a conversion by molar mass, not a printed value.

How the values were obtained:
[1] = system: Mycobacterium tuberculosis; assay: Antitubercular activity against Mycobacterium tuberculosis H37Ra; type: functional
Vero [2] = assay: Cytotoxicity against African green monkey Vero cells; type: cell-based; settings: Chlorocebus sabaeus
Vero [3] = assay: Cytotoxicity against African green monkey Vero cells by GFP based microplate assay; type: cell-based; settings: Chlorocebus sabaeus
[4] = system: Mycobacterium tuberculosis; assay: Antitubercular activity against Mycobacterium tuberculosis H37Ra by GFP based microplate assay; type: functional

CO[C@@H]1C[C@H]2C(C)(C)[C@@H](OC(C)=O)CC[C@]2(C)C2=C1[C@]1(C)[C@@H](O)C[C@H]([C@H](C)[C@H](C/C=C(\C)C(=O)O)OC(C)=O)[C@@]1(C)CC2
MIC [1]: 50 µg/mL (≈ 82.9 µM)
IC50 (Vero [2]): 32 µM

CC(=O)O[C@H]1C[C@H]([C@H](C)CC/C=C(\C)C(=O)O)[C@@]2(C)CC=C3C(=CC[C@H]4C(C)(C)[C@H](O)CC[C@]34C)[C@]12C
IC50 (Vero [3]): 94 µM
MIC [4]: 25 µg/mL (≈ 48.8 µM)

CC(=O)O[C@@H](C/C=C(\C)C(=O)O)[C@@H](C)[C@H]1CC[C@@]2(C)C3=C(CC[C@]12C)[C@@]1(C)CC[C@@H](O)C(C)(C)[C@@H]1CC3=O
IC50 (Vero [3]): 95 µM
MIC [4]: 50 µg/mL (≈ 94.6 µM)

CC(=O)O[C@H]1CC[C@]2(C)C3=C([C@H](O)C[C@H]2C1(C)C)[C@]1(C)[C@@H](O)C[C@H]([C@H](C)CC/C=C(\C)C(=O)O)[C@@]1(C)CC3
IC50 (Vero [3]): 39 µM
MIC [4]: 50 µg/mL (≈ 94.2 µM)

CC(=O)O[C@@H]1C[C@H]2C(C)(C)C(=O)CC[C@]2(C)C2=C1[C@]1(C)[C@@H](O)C[C@H]([C@H](C)CC/C=C(\C)C(=O)O)[C@@]1(C)CC2
IC50 (Vero [3]): > 95 µM
MIC [4]: 25 µg/mL (≈ 47.3 µM)

CC(=O)O[C@H]1CC[C@]2(C)C3=C([C@H](OC(C)=O)C[C@H]2C1(C)C)[C@]1(C)[C@@H](O)C[C@H]([C@H](C)CC/C=C(\C)C(=O)O)[C@@]1(C)CC3
IC50 (Vero [3]): 31 µM
MIC [4]: 25 µg/mL (≈ 43.6 µM)

CC(=O)O[C@@H](C/C=C(\C)C(=O)O)[C@@H](C)[C@H]1CC[C@@]2(C)C3=C(CC[C@]12C)[C@@]1(C)CC[C@H](O)C(C)(C)[C@@H]1CC3=O
IC50 (Vero [3]): 87 µM
MIC [4]: 1.56 µg/mL (≈ 2.95 µM)

C/C(=C\C[C@H](O)[C@@H](C)[C@H]1CC[C@@]2(C)C3=C(CC[C@]12C)[C@@]1(C)CCC(=O)C(C)(C)[C@@H]1CC3)C(=O)O
IC50 (Vero [3]): 105 µM
MIC [4]: 50 µg/mL (≈ 106 µM)

CO[C@@H]1C[C@H]2C(C)(C)C(=O)CC[C@]2(C)C2=C1[C@]1(C)CC[C@H]([C@H](C)CC/C=C(\C)C(=O)O)[C@@]1(C)CC2
IC50 (Vero [3]): > 103 µM
MIC [4]: 25 µg/mL (≈ 51.6 µM)

CC(=O)O[C@H]1CC[C@]2(C)C3=C(C(=O)C[C@H]2C1(C)C)[C@]1(C)[C@@H](O)C[C@H]([C@H](C)CC/C=C(\C)C(=O)O)[C@@]1(C)CC3
IC50 (Vero [3]): 92 µM
MIC [4]: 50 µg/mL (≈ 94.6 µM)

CC(=O)O[C@H]1C[C@H]([C@H](C)CC/C=C(\C)C(=O)O)[C@@]2(C)CC=C3C(=CC[C@H]4C(C)(C)C(=O)CC[C@]34C)[C@]12C
IC50 (Vero [3]): > 98 µM
MIC [4]: 12.5 µg/mL (≈ 24.5 µM)

CC(=O)O[C@@H](C/C=C(\C)C(=O)O)[C@@H](C)[C@H]1CC[C@@]2(C)C3=C(CC[C@]12C)[C@@]1(C)CC[C@H](OC(C)=O)C(C)(C)[C@@H]1C[C@H]3O
IC50 (Vero [3]): 84 µM
MIC [4]: 25 µg/mL (≈ 43.6 µM)

CO[C@@H]1C[C@H]2C(C)(C)[C@@H](OC(C)=O)CC[C@]2(C)C2=C1[C@]1(C)[C@@H](OC(C)=O)C[C@H]([C@H](C)CC/C=C(\C)C(=O)O)[C@@]1(C)CC2
IC50 (Vero [3]): 30 µM
MIC [4]: 3.13 µg/mL (≈ 5.33 µM)

CC(=O)O[C@H]1C[C@H]([C@H](C)CC/C=C(\C)C(=O)O)[C@@]2(C)CCC3=C(CC[C@H]4C(C)(C)[C@@H](O)CC[C@]34C)[C@]12C
IC50 (Vero [3]): > 96 µM
MIC [4]: 12.5 µg/mL (≈ 24.3 µM)

CC(=O)O[C@@H](C/C=C(\C)C(=O)O)[C@@H](C)[C@H]1CC[C@@]2(C)C3=C(CC[C@]12C)[C@@]1(C)CC[C@H](OC(C)=O)C(C)(C)[C@@H]1CC3=O
IC50 (Vero [3]): 32 µM
MIC [4]: 6.25 µg/mL (≈ 11 µM)

CO[C@@H]1C[C@H]2C(C)(C)[C@H](OC(C)=O)CC[C@]2(C)C2=C1[C@]1(C)CC[C@H]([C@H](C)[C@H](C/C=C(\C)C(=O)O)OC(C)=O)[C@@]1(C)CC2
IC50 (Vero [3]): 38 µM
MIC [4]: 50 µg/mL (≈ 85.2 µM)

CC(=O)O[C@@H](C/C=C(\C)C(=O)O)[C@@H](C)[C@H]1C[C@H](O)[C@@]2(C)C3=C(CC[C@]12C)[C@@]1(C)CC[C@H](OC(C)=O)C(C)(C)[C@@H]1C[C@H]3OC(C)=O
IC50 (Vero [3]): 77 µM
MIC [4]: 12.5 µg/mL (≈ 19.8 µM)

CC(=O)O[C@@H](C/C=C(\C)C(=O)O)[C@@H](C)[C@H]1C[C@H](O)[C@@]2(C)C3=CC[C@H]4C(C)(C)[C@@H](O)CC[C@]4(C)C3=CC[C@]12C
IC50 (Vero [3]): 95 µM
MIC [4]: 6.25 µg/mL (≈ 11.8 µM)

CC(=O)O[C@@H](C/C=C(\C)C(=O)O)[C@@H](C)[C@H]1C[C@H](O)[C@@]2(C)C3=C(CC[C@]12C)[C@@]1(C)CCC(=O)C(C)(C)[C@@H]1C[C@H]3O
IC50 (Vero [3]): > 92 µM
MIC [4]: > 50 µg/mL

CC(=O)O[C@H]1CC[C@]2(C)C3=CC[C@]4(C)[C@@H]([C@H](C)CC/C=C(\C)C(=O)O)CC[C@@]4(C)C3=CC[C@H]2C1(C)C
IC50 (Vero [3]): > 101 µM
MIC [4]: > 50 µg/mL

CO[C@@H]1C[C@H]2C(C)(C)C(=O)CC[C@]2(C)C2=C1[C@]1(C)[C@@H](OC(C)=O)C[C@H]([C@H](C)[C@H](C/C=C(\C)C(=O)O)OC(C)=O)[C@@]1(C)CC2
IC50 (Vero [3]): > 83 µM
MIC [4]: > 50 µg/mL

CC(=O)O[C@H]1C[C@H]([C@H](C)CC/C=C(\C)C(=O)O)[C@@]2(C)CCC3=C(CC[C@H]4C(C)(C)C(=O)CC[C@]34C)[C@]12C
IC50 (Vero [3]): > 98 µM
MIC [4]: 50 µg/mL (≈ 97.5 µM)

CC(=O)O[C@@H](C/C=C(\C)C(=O)O)[C@@H](C)[C@H]1C[C@H](OC(C)=O)[C@@]2(C)C3=CC[C@H]4C(C)(C)[C@@H](O)CC[C@]4(C)C3=CC[C@]12C
IC50 (Vero [3]): 33 µM
MIC [4]: > 50 µg/mL

C/C(=C\CC[C@@H](C)[C@H]1CC[C@@]2(C)C3=C(CC[C@]12C)[C@@]1(C)CCC(=O)C(C)(C)[C@@H]1C[C@H]3O)C(=O)O
IC50 (Vero [3]): 103 µM
MIC [4]: 3.13 µg/mL (≈ 6.65 µM)

CC(=O)O[C@H]1CC[C@]2(C)C3=CC[C@]4(C)[C@@H]([C@H](C)CC/C=C(\C)C(=O)O)C[C@H](O)[C@@]4(C)C3=CC[C@H]2C1(C)C
IC50 (Vero [3]): 13 µM
MIC [4]: 6.25 µg/mL (≈ 12.2 µM)

CC(=O)O[C@H]1C[C@H]([C@H](C)CC/C=C(\C)C(=O)O)[C@@]2(C)CCC3=C([C@H](O)C[C@H]4C(C)(C)C(=O)CC[C@]34C)[C@]12C
IC50 (Vero [3]): > 95 µM
MIC [4]: 50 µg/mL (≈ 94.6 µM)

CO[C@@H]1C[C@H]2C(C)(C)[C@H](OC(C)=O)CC[C@]2(C)C2=C1[C@]1(C)[C@@H](OC(C)=O)C[C@H]([C@H](C)[C@H](C/C=C(\C)C(=O)O)OC(C)=O)[C@@]1(C)CC2
IC50 (Vero [3]): 26 µM
MIC [4]: 12.5 µg/mL (≈ 19.4 µM)

CC(=O)O[C@@H](C/C=C(\C)C(=O)O)[C@@H](C)[C@H]1C[C@H](OC(C)=O)[C@@]2(C)C3=C(CC[C@]12C)[C@@]1(C)CC[C@@H](OC(C)=O)C(C)(C)[C@@H]1C[C@H]3O
IC50 (Vero [3]): 28 µM
MIC [4]: 12.5 µg/mL (≈ 19.8 µM)

CO[C@@H]1C[C@H]2C(C)(C)[C@H](OC(C)=O)CC[C@]2(C)C2=C1[C@]1(C)[C@@H](O)C[C@H]([C@H](C)CC/C=C(\C)C(=O)O)[C@@]1(C)CC2
IC50 (Vero [3]): 87 µM
MIC [4]: 50 µg/mL (≈ 91.8 µM)

CC(=O)O[C@@H](C/C=C(\C)C(=O)O)[C@@H](C)[C@H]1CC[C@@]2(C)C3=CC[C@H]4C(C)(C)[C@H](OC(C)=O)CC[C@]4(C)C3=CC[C@]12C
IC50 (Vero [3]): 32 µM
MIC [4]: 50 µg/mL (≈ 90.1 µM)

CO[C@@H]1C[C@H]2C(C)(C)[C@H](OC(C)=O)CC[C@]2(C)C2=C1[C@]1(C)[C@@H](OC(C)=O)C[C@H]([C@H](C)CC/C=C(\C)C(=O)O)[C@@]1(C)CC2
IC50 (Vero [3]): > 85 µM
MIC [4]: 50 µg/mL (≈ 85.2 µM)

CC(=O)O[C@@H](C/C=C(\C)C(=O)O)[C@@H](C)[C@H]1C[C@H](O)[C@@]2(C)C3=C(CC[C@]12C)[C@@]1(C)CC[C@H](OC(C)=O)C(C)(C)[C@@H]1C[C@H]3O
IC50 (Vero [3]): 83 µM
MIC [4]: 12.5 µg/mL (≈ 21.2 µM)

CC(=O)O[C@H]1CC[C@]2(C)C3=CC[C@]4(C)[C@@H]([C@H](C)CC/C=C(\C)C(=O)O)C[C@H](OC(C)=O)[C@@]4(C)C3=CC[C@H]2C1(C)C
IC50 (Vero [3]): 32 µM
MIC [4]: 0.391 µg/mL (≈ 0.705 µM)

CC(=O)O[C@@H](C/C=C(\C)C(=O)O)[C@@H](C)[C@H]1C[C@H](OC(C)=O)[C@@]2(C)C3=CC[C@H]4C(C)(C)C(=O)CC[C@]4(C)C3=CC[C@]12C
IC50 (Vero [3]): 87 µM
MIC [4]: 25 µg/mL (≈ 44 µM)
